# In PMC10229426, “An optimized bioluminescent substrate for non-invasive imaging in the brain” (Nature Chemical Biology, 2023):
# “And” between values parts separate entries of the source, which are not always exact repeats. Equal entries are not always repeated. “Also recorded” adds a separate entry of the source. Where two headings read alike, the source gives them in different places.
# What was measured:
# [1] = In vivo substrate pharmacokinetics (plasma and brain); design: species or system C57BL/6 mice; conditions: for concentration at 5 min: male, C57BL/6, mouse, brain, ip, 5 min after i.p. 1.3 µmol, wild-type mice
# Method: PK measurements were performed at Shanghai ChemPartner for Fz and compound 6 in 6- to 8-week-old overnight-fasted male C57BL/6 mice. Fz and compound 6 were formulated as clear solutions in 10% ethanol, 10% glycerol, 10% hydroxypropyl-β-cyclodextrin (Sigma-Aldrich), 35% PEG-300 and 35% water. Freshly prepared injectable doses (i.p., 20 mg per kg body weight for Fz and 21.6 mg per kg body weight for compound 6) were administered at 20 ml kg^–1. Each of the two measurement series consisted of four mice and two time points (series 1, predose and 0.083 h; series 2, 0.083 h and 0.167 h).
# At each time point, ~90 µl of blood was collected into a K2EDTA tube via facial vein bleeding. Plasma samples were put on ice and centrifuged to obtain plasma samples (2,000g for 5 min at 4 °C) within 15 min of collection. The plasma samples were stored at –70 °C until analysis. For analysis, 20 µl of plasma sample was added to 20 µl of stabilizer (80:20 (vol:vol) mixture of 200 mg ml^–1 EDTA and 100 mM L-ascorbic acid in water).
# At the terminal point of each series, a midline incision was made in the animal’s scalp, and the skin was retracted. The skull overlying the brain was removed. The whole brain was collected, rinsed with cold saline, dried on filtrate paper, weighed and snap-frozen by placing it into dry ice. No abnormal symptoms were observed during the studies. The brain samples were homogenized with 4 ml of stabilizer (80:20 (vol:vol) mixture of 200 mg ml^–1 EDTA and 100 mM L-ascorbic acid in water) per gram of tissue. The above samples (plasma or brain) were mixed with 120 µl of internal standard (Glipizide, 100 ng ml^–1) in acetonitrile. […] Compound concentrations were quantified using LC–MS/MS detection. […]
# PK parameters were determined by the non-compartmental model of the non-compartmental analysis tool, Pharsight Phoenix WinNonlin 8.2 software. […] When the number of detected time points after Tmax was less than 3, the terminal half-life and the area under the plasma concentration-time curve from zero to infinity were not calculated.
# [2] = design: method as in doi:10.1134/S1068162018020085; conditions: cited from earlier work
# [3] = Toxicity in mice: necropsy and histopathology; assay type: in vivo, C57BL/6 mice; design: key to BMH, brain multifocal hemorrhage score / HN, hepatocellular necrosis score / RTD, renal tubular dilation score / RTDR, renal tubular degeneration and regeneration score: 0: absent; 1: minimal; 2: mild; 3: moderate; 4: severe; key to HMNH, heart myocardial necrosis and hemorrhage score: 0: no lesions; 1: <5% of myocardium affected; 2: 5-10% affected; 3: 10-25% affected; 4: >25% affected; key to SRPHMV, splenic red pulp histiocytosis with microvesicular vacuolation score: 0: no lesions; 1: lesions present; key to LC, Liver capsule score: 0: normal; 1: segmental subcapsular necrosis +/- neutrophilic infiltrate; Total organ score: scale not given here; conditions: for toxicity after a single i.p. injection: 4.2 µmol with 20 mg P-407, one injection; for BMH, brain multifocal hemorrhage score / HMNH, heart myocardial necrosis and hemorrhage score / HN, hepatocellular necrosis score / LC, Liver capsule score / RTD, renal tubular dilation score / RTDR, renal tubular degeneration and regeneration score / SRPHMV, splenic red pulp histiocytosis with microvesicular vacuolation score / Total organ score / ∆ weight: individual mice
# Method: (§1) Male C57BL/6 mice of 2 months of age were killed by CO2 asphyxiation and cardiac exsanguination. All mice were weighed, and a complete gross examination of the external and internal organs was performed. […] Formalin-fixed tissues were processed routinely, embedded in paraffin, sectioned at 5 μm and stained with hematoxylin and eosin. All slides were blindly evaluated for histologic treatment-related effects (Supplementary Table 1) by a board-certified veterinary pathologist.
# [4] = Toxicity in mice: necropsy and histopathology; assay type: in vivo, C57BL/6 mice; design: key: 0: absent; 1: minimal; 2: mild; 3: moderate; 4: severe; conditions: individual mice
# Method: as §1
smiles,measurement,setting,value
"O=c1c(Cc2ccco2)nc2c(Cc3ccccc3)[nH]c(-c3ccccc3)cn1-2 [Fz, furimazine, reference compound]",concentration at 5 min,[1],1.1 µM
same,toxicity of daily i.v. injection,[2]; 20 µg i.v. per day,minimal toxicity
same,toxicity of daily i.v. injection,[2]; 60 µg (0.16 µmol) i.v. daily for 7 d,caused liver and lung damage
"O=c1c(Cc2ccco2)nc2c(Cc3ccccc3)[nH]c(-c3cccc(F)c3F)cn1-2 [compound 6, cephalofurimazine]",bioavailability from plasma concentrations,"[1]; i.p. 1.3 µmol, plasma at 5 and 10 min, vs Fz",improved bioavailability after i.p. injection
same,concentration at 5 min,[1],1.4 µM
same,weight loss,"[3]; 1.3 µmol CFz with 12 mg P-407, daily for 3 or 5 d",< 5%
same,effects on organ tissues after daily administration,"[3]; 1.3 µmol CFz with 12 mg P-407, daily i.p. for 3 or 5 d, listed as CFz",mild and well tolerated and Renal lesions were minimal to absent
same,toxicity after three daily i.p. injections,[3]; 4.2 µmol CFz with 20 mg P-407,noticeably toxic to organs
same,toxicity after a single i.p. injection,[3],minimal effects on heart and kidney tissues without weight loss
same,toxicity after a single i.p. injection,[3]; listed as CFz,minimal toxicity
same,"BMH, brain multifocal hemorrhage score","[3]; 1 day, 4.2 µmol, 20 mg P-407",0
same,"HMNH, heart myocardial necrosis and hemorrhage score","[3]; 1 day, 4.2 µmol, 20 mg P-407",1 (<5% of myocardium affected) and 0 (2×)
same,"HN, hepatocellular necrosis score","[3]; 1 day, 4.2 µmol, 20 mg P-407",0
same,"LC, Liver capsule score","[3]; 1 day, 4.2 µmol, 20 mg P-407",0
same,"RTD, renal tubular dilation score","[3]; 1 day, 4.2 µmol, 20 mg P-407",0 and 1 (<5% of tubules affected) (2×)
same,"RTDR, renal tubular degeneration and regeneration score","[3]; 1 day, 4.2 µmol, 20 mg P-407",0 (2×) and 1 (<5% of tubules affected)
same,"SRPHMV, splenic red pulp histiocytosis with microvesicular vacuolation score","[3]; 1 day, 4.2 µmol, 20 mg P-407",0
same,Total organ score,"[3]; 1 day, 4.2 µmol, 20 mg P-407",2 (2×) and 1
same,∆ weight,"[3]; 1 day, 4.2 µmol, 20 mg P-407",–0.7% and +0.3% and +1.4%
same,"BMH, brain multifocal hemorrhage score","[3]; 3 days, 1.3 µmol, 12 mg P-407",0
same,"HMNH, heart myocardial necrosis and hemorrhage score","[3]; 3 days, 1.3 µmol, 12 mg P-407",1 (<5% of myocardium affected)
same,"HN, hepatocellular necrosis score","[3]; 3 days, 1.3 µmol, 12 mg P-407",0 (2×) and 2
same,"LC, Liver capsule score","[3]; 3 days, 1.3 µmol, 12 mg P-407",0
same,"RTD, renal tubular dilation score","[3]; 3 days, 1.3 µmol, 12 mg P-407",1 (<5% of tubules affected) (2×) and 0
same,"RTDR, renal tubular degeneration and regeneration score","[3]; 3 days, 1.3 µmol, 12 mg P-407",1 (<5% of tubules affected)
same,"SRPHMV, splenic red pulp histiocytosis with microvesicular vacuolation score","[3]; 3 days, 1.3 µmol, 12 mg P-407",0
same,Total organ score,"[3]; 3 days, 1.3 µmol, 12 mg P-407",3 and 2 and 5
same,∆ weight,"[3]; 3 days, 1.3 µmol, 12 mg P-407",–2.2%; also recorded: –0.4%; also recorded: –1.1%
same,"BMH, brain multifocal hemorrhage score","[3]; 3 days, 4.2 µmol, 20 mg P-407",0
same,"HMNH, heart myocardial necrosis and hemorrhage score","[3]; 3 days, 4.2 µmol, 20 mg P-407",2 (5-10% affected) (2×) and 1 (<5% of myocardium affected)
same,"HN, hepatocellular necrosis score","[3]; 3 days, 4.2 µmol, 20 mg P-407",0
same,"LC, Liver capsule score","[3]; 3 days, 4.2 µmol, 20 mg P-407",0
same,"RTD, renal tubular dilation score","[3]; 3 days, 4.2 µmol, 20 mg P-407",3 (25%–50% of tubules affected) (2×) and 2 (5%–25% of tubules affected)
same,"RTDR, renal tubular degeneration and regeneration score","[3]; 3 days, 4.2 µmol, 20 mg P-407",3 (25%–50% of tubules affected) and 2 (5%–25% of tubules affected) (2×)
same,"SRPHMV, splenic red pulp histiocytosis with microvesicular vacuolation score","[3]; 3 days, 4.2 µmol, 20 mg P-407",1
same,Total organ score,"[3]; 3 days, 4.2 µmol, 20 mg P-407",9 (2×) and 6
same,∆ weight,"[3]; 3 days, 4.2 µmol, 20 mg P-407",–8.3%; also recorded: –3.7%; also recorded: –3.0%
same,"BMH, brain multifocal hemorrhage score","[3]; 5 days, 1.3 µmol, 12 mg P-407",0
same,"HMNH, heart myocardial necrosis and hemorrhage score","[3]; 5 days, 1.3 µmol, 12 mg P-407",0 (2×) and 1 (<5% of myocardium affected)
same,"HN, hepatocellular necrosis score","[3]; 5 days, 1.3 µmol, 12 mg P-407",0
same,"LC, Liver capsule score","[3]; 5 days, 1.3 µmol, 12 mg P-407",0
same,"RTD, renal tubular dilation score","[3]; 5 days, 1.3 µmol, 12 mg P-407",0
same,"RTDR, renal tubular degeneration and regeneration score","[3]; 5 days, 1.3 µmol, 12 mg P-407",1 (<5% of tubules affected) (2×) and 0
same,"SRPHMV, splenic red pulp histiocytosis with microvesicular vacuolation score","[3]; 5 days, 1.3 µmol, 12 mg P-407",1
same,Total organ score,"[3]; 5 days, 1.3 µmol, 12 mg P-407",1 (2×) and 3
same,∆ weight,"[3]; 5 days, 1.3 µmol, 12 mg P-407",–3.2%; also recorded: –4.6%; also recorded: –1.8%
same,"HPMC, heart perivascular myxomatous change score","[4]; 1 day, 4.2 µmol, 20 mg P-407",0
same,"HT, heart telangiectasia score","[4]; 1 day, 4.2 µmol, 20 mg P-407",0
same,"KCHMV, Kupffer cell hyperplasia and microvesicular vacuolation score","[4]; 1 day, 4.2 µmol, 20 mg P-407",0
same,"HPMC, heart perivascular myxomatous change score","[4]; 3 days, 1.3 µmol, 12 mg P-407",0
same,"HT, heart telangiectasia score","[4]; 3 days, 1.3 µmol, 12 mg P-407",0
same,"KCHMV, Kupffer cell hyperplasia and microvesicular vacuolation score","[4]; 3 days, 1.3 µmol, 12 mg P-407",0
same,"HPMC, heart perivascular myxomatous change score","[4]; 3 days, 4.2 µmol, 20 mg P-407",0
same,"HPMC, heart perivascular myxomatous change score","[4]; 5 days, 1.3 µmol, 12 mg P-407",0
same,"HT, heart telangiectasia score","[4]; 5 days, 1.3 µmol, 12 mg P-407",0
